Laboratory results reported in patent US11427605B2, “Crystalline forms of 5-chloro-N4-[-2-(dimethylphosphoryl) phenyl]-N2-{2-methoxy-4-[4-(4-methylpiperazin-1-yl) piperidin-1-yl] phenyl} pyrimidine-2,4-diamine” (ARIAD Pharmaceuticals, Inc., priority 2014, dated 2022).
Converted amounts (≈) assume the structure as drawn. Like-named read-outs stand apart in the source and are kept apart here. Values belong to the molecule of their own block, whether it stands above or below them.

Experiments:
[1] = Dynamic vapor sorption (DVS); assay type: physicochemical; details: for Hygroscopicity: general statement
Method: In a […] vapor sorption (DVS) experiment with Form A, the sample was first dried at 0% RH for 6 hours. Then, the relative humidity was cycled from 5% to 95% RH (sorption), then to 5% RH (desorption) at a constant temperature of 25° C., with a hold time of 60 minutes per step.
In three DVS experiments, the relative humidity was varied as follows:
Expt. 4: 0% for 6 h→5% for 1 h→15% for 1 h→25-85% gradient over 2 h→95 for 5 h RH

Variable humidity XRPD = assay type: physicochemical
Method: The temperature variation rate was 10° C./min.
The relative humidity was increased from the starting amount, brought up to the maximum, then dried back to the minimum value. The data collection time was 41 min at each step, time starting after equilibration of the relative humidity.
The peaks shifts were reversible at RH of about 30%. A sample of Form A was then exposed to 80% RH for 15 h. The peaks shifts had occurred after 90 min, and the extent of the shifts remained constant throughout the exposure at 80% RH for 15 h. Upon return to 10% RH, the peaks shifted to their original position. To investigate the amount of water adsorbed, a new sample of Form A was exposed for 2 h at 80% and a TGMS of this sample was measured.
For Form B, the relative humidity was measured at 30° C. The RH % values measured were 10, 30, 50, 60, 65, 70, 75, and 80%. […] At 80% RH the conversion to Form C was completed. Upon desorption, Form C dehydrates to Form B, starting at about 30% RH. At 10% RH the conversion to Form B was completed.
For Form C, a hydrate, the relative humidity was measured at 30° C. The experiment was performed starting at the maximum RH and dehydrated, then rehydrated back up to the maximum value. The RH % values measured were 10, 15, 20, 25, 30, 35, 40, 60, and 80%. Upon desorption, Form C dehydrated to Form B, starting at about 25% RH. At 10% RH, the conversion to Form B was complete. Upon sorption, Form B converted to Form C, starting at about 60% RH. At 80% RH the conversion to Form C was complete. The results are consistent with the corresponding experiments of Form B.
For Form D, a hydrate, the relative humidity was measured at 30° C. The experiment was performed starting at the maximum RH and dehydrated, then rehydrated back up to the maximum value. The RH % values measured were 10, 15, 20, 25, 30, 35, 40, 60, and 80%. […] Form C dehydrated to Form B, starting at about 20% RH. At 10% RH, the conversion to Form B was complete. Upon sorption, Form B converted to Form C, starting at about 40% RH. At 80% RH, the conversion to Form C was complete.

[2] = not given; remark: listed apart in the source
[3] = for solid form (XRPD, analyzed wet): slurry in Water, 25° C.
Method: In a second set of slurry experiments, the same amounts of Form A and Form B were weighed into 1.8 mL vials, and charged with a stirring bar. After addition of the solvent, the slurries were placed at 25° C. and 50° C., under stirring. Material from the slurries was sampled at the time points of 2, 4 and 14 days (sampling from the same vial per solvent and per temperature). These materials were analyzed wet by XRPD and digital imaging.

[4] = Intrinsic dissolution rate (IDR); assay type: physicochemical
Method: For measuring the intrinsic dissolution rate (IDR), the starting material was tableted using a mini-IDR compression system (pION/Heath Scientific). For preparation of the tablets, approximately 11 mg of material was pressed in the cylindrical hole of a passivated stainless steel die, to a uniform, flat surface, with an exposed area of 0.072 cm^2. The pressure applied was approximately 50 bar for 3-5 min. The sample die was inserted in a cylindrical Teflon rotating disk carrier containing an embedded magnetic stirring bar at its base. The die/stirrer assembly was placed in a flat bottomed glass vial, ready for dissolution analysis.
The dissolution rate was measured in 20 mL of solvent (medium) and the path length of the UV meter was 2 mm. Applied stirring speed during measurement was 100 rpm. Measurements were performed at 20° C. and 37° C.
In the first series, the IDR of Forms A and B were determined in monoplicate. […] In FIGS. 30-37, the IDRs are plotted for comparison between the forms and the same medium or between various media and the same form. The IDR of each of Forms A and B in the various media increases with increasingly acidic media (see FIGS. 34-37).
In several cases, the results were counter-intuitive. […] The results of these additional experiments are plotted in FIGS. 38-42.

[5] = Dissolution rate from a powdered sample in water; assay type: physicochemical; details: powder, 37° C.
Method: For determining the dissolution rate from a powdered sample, approximately 5 mg of brigatinib (Form A or B) was weighed into a 5 mL dissolution vial and the dissolution probe was inserted into the vial. Subsequently, 4 mL of water was added at the same time the measurement was initiated. The concentration was recorded for 20 h.
For measuring the dissolution rate from powder, the test was only performed in water for Forms A and B at 37° C., as the solubilities of Forms A and B were […] enough to permit detection.

Compression tests = assay type: physicochemical; details: 3 and 6 ton/cm^2 for one minute
Method: Compression tests were performed on brigatinib Form A in order to determine whether pressure-induced phase transformations or loss of crystallinity occurred. The press used was an Atlas Manual 25 Ton Hydraulic Press (from SPECAC). Experiments were carried out at 3 and 6 ton/cm^2 for one minute in each case.

[6] = 24 h
Method: (§1) For each medium, a standard 1.8 mL screw cap vial was charged with circa 40 mg of the starting material, 400 μl of solvent and a magnetic stirring bar (in the cases of chloroform and dichloromethane 200 μl of solvent were used). The vials were subsequently closed and equilibrated at the corresponding temperature for 24 h while stirring. The liquid part was retrieved with a syringe and filtered (0.5 micron filter); the isolated mother liquors were diluted to two dilutions selected according to the calibration curve. Quantities of the API in the diluted solutions were determined via HPLC analysis (DAD). […] Subsequently, the separated solids were measured wet by XRPD to confirm the solid form of which the solubility was measured.

[7] = ground for 5 hours
Method: Grinding experiments were performed to obtain amorphous brigatinib. […] In a mechanical stress test via grinding, a sample of Form A was ground for 2, 3, 4 and 5 hours. Recovered solids were analyzed by XRPD and HPLC.
Grinding. Two grinding experiments were performed on samples of Form A with two different durations (30 and 60 min) at a frequency of 30 Hz. […] Mechanical stress via grinding experiments were also performed, with grinding times of 2, 3, 4, and 5 hours.

physchem [8] = details: thermodynamic from solid; for solubility at 24 h: Solub
Method: as §1

physchem [9] = details: thermodynamic from solid
[10] = 30° C., sample started as the labelled form
[11] = VT-XRPD, sample started as the labelled form
[12] = 37 °C, pH 1, simulated gastric fluid

Solid form after DVS cycle (XRPD) ([1]; Expt. 1 (5%→95%→65% RH)): hydrated Form C | Water adsorbed during sorption ([1]; Expt. 1 (5%→95%→65% RH), between 45-95% RH): 2.26 molecules of water | Change in mass during desorption after about 75% RH ([1]; Expt. 2): about 5.2% | Gained mass during desorption until about 25% RH ([1]; Expt. 2): 4.2% | Mass increase at 85% RH during desorption ([1]; Expt. 2): 17.4% | Maximum change in mass as water molecules ([1]; Expt. 2): 5.6 water molecules | Water molecules during desorption after about 75% RH ([1]; Expt. 2): about 1.7 water molecules | Water molecules during desorption until about 25% RH ([1]; Expt. 2): 1.4 water molecules | Solid form after DVS cycle (XRPD) ([1]; Expt. 2 (5%→95%→5% RH)): mixture of Forms B and C | Mass change, first sorption step ([1]; Expt. 2 (5%→95%→5% RH), between 45-85% RH): 6.45% | Water molecules, first sorption step ([1]; Expt. 2, between 45-85% RH): 2.1 water molecules | Total change in mass, second sorption step ([1]; Expt. 2, between 85% and 95% RH): 16.7% | Total change in mass at 95% RH ([1]; Expt. 3): 15.88% | Total change in mass at 95% RH as water molecules ([1]; Expt. 3): 5.15 water molecules | Solid form after DVS cycle (XRPD) ([1]; Expt. 3 (5%→95% RH)): Forms B+C | Change in mass, first step ([1]; Expt. 3 (5%→95% RH), between 45-85% RH): 5.59% | Water molecules, first step ([1]; Expt. 3, between 45-85% RH): 1.8 water molecules | Maximum change in mass as water molecules ([1]; Expt. 4): 7.2 water molecules | Solid form after DVS cycle (XRPD) ([1]; Expt. 4): Forms C+D | Maximum change in mass ([1]; Expt. 4 (longer equilibration; up to 95% RH for 5 h)): 22.2% | Hygroscopicity [1]: hygroscopic | Humidity level at which Form B converts to the hydrated Forms C and D (Variable humidity XRPD; 30° C., reversible): above 60 % RH | RH at which Form B starts to convert to hydrated Form C (sorption) (Variable humidity XRPD; [10]): about 65 % RH | RH at which Form C starts to dehydrate to Form B (desorption) (Variable humidity XRPD; [10]): about 30 % RH | RH at which conversion to Form B was complete (desorption) (Variable humidity XRPD; [10]): 10 % RH | RH at which conversion to Form C was complete (sorption) (Variable humidity XRPD; [10]): 80 % RH | Temperature at which (partial) conversion to Form A was observed [11]: 150 °C | Temperature at which conversion to Form A was complete [11]: 155 °C | Temperature of solid-solid transition to Form A (ambient humidity, increasing temperature, not reversible): about 150 °C | Solid form after humidity exposure ([2]; 90% RH for one day): converted to a mixture of Forms C and D | Solid form conversion in slurry with Form A (XRPD, wet) ([3]; all organic solvents and water at 37° C., sampled at 2, 4 and 14 days): converted to Form A | Solid form conversion in slurry with Form A (XRPD, wet) ([3]; water at 25° C. (aqueous environment), 2 and 4 days): converted to Form D
Compound: COc1cc(N2CCC(N3CCN(C)CC3)CC2)ccc1Nc1ncc(Cl)c(Nc2ccccc2P(C)(C)=O)n1 [Form B, brigatinib]
Solid form conversion on slurrying (XRPD, wet) ([2]; room temperature, water, HCl buffer of pH 1.0): converted to the heptahydrate Form D after 45 min

Amount that could be dissolved in the stomach together with a 200 ml glass of water ([4]; numbers are only indicative): about 50 mg | Concentration reached in IDR measurement ([4]; pH 1.0 and SGF, within 5 min): ~250 µg/mL | Solid form stability when slurried (IDR experiments) ([4]; water, SGF, and pH 1.0 aqueous buffer): remains stable | Concentration at 10 min [5]: 70 µg/mL | Concentration at 20 h [5]: 140 µg/mL | Hygroscopicity (DVS) ([1]; 5% to 95% RH, then to 5% RH, 25° C., 60 minutes per step): not hygroscopic | Hygroscopicity [1]: not hygroscopic | Phase transformation under pressure (XRPD) (Compression tests): no phase transitions or peak shifts | Phase transition with humidity (VH-XRPD) (Variable humidity XRPD; 30 and 60° C.): did not show any phase transition | Mass loss by TGMS after humidity exposure (water adsorbed) (Variable humidity XRPD; exposed for 2 h at 80% RH): 0.35% | Water molecules adsorbed after humidity exposure (Variable humidity XRPD; exposed for 2 h at 80% RH): 0.1 water molecules | Solub [6]: 0.1 ± 0.0 mg/mL | Solid state after grinding (XRPD) [7]: almost completely amorphous | Phase transformation on heating (VT-XRPD) (25 to 200° C.): did not reveal any phase transformation | solid form (XRPD, analyzed wet) ([3]; 2 Days): A + D | solid form (XRPD, analyzed wet) ([3]; 4 days): A + D | solubility at 24 h (physchem [8]; 25 °C, pH 1, simulated gastric fluid): 60.4 ± 2.9 mg/mL (≈ 103 mM) | solubility at 24 h (physchem [8]; 25 °C, pH 4.5, aqueous buffer): 24.4 ± 1.2 mg/mL (≈ 41.8 mM) | solubility at 24 h (physchem [8]; 25 °C, pH 6.8, aqueous buffer): 8.6 ± 1.4 mg/mL (≈ 14.7 mM) | solubility at 24 h (physchem [8]; 25 °C, water): 0.11 mg/mL (≈ 0.188 mM) | solubility at 24 h (physchem [8]; [12]): 70.6 ± 1.5 mg/mL (≈ 121 mM) | solubility (physchem [8]; [12]): 70 mg/mL (≈ 120 mM) | solubility at 24 h (physchem [8]; 37 °C, pH 4.5, aqueous buffer): 26 mg/mL (≈ 44.5 mM) | solubility (physchem [8]; 37 °C, pH 4.5, aqueous buffer): 26 mg/mL (≈ 44.5 mM) | solubility (physchem [8]; 37 °C, pH 6.5, aqueous buffer): 6 mg/mL (≈ 10.3 mM) | solubility at 24 h (physchem [8]; 37 °C, pH 6.8, aqueous buffer): 6.2 ± 0.1 mg/mL (≈ 10.6 mM) | solubility at 24 h (physchem [8]; 37 °C, simulated gastric fluid): 51.7 ± 0.6 mg/mL (≈ 88.5 mM) | solubility (physchem [8]; simulated gastric fluid): 52 mg/mL (≈ 89 mM) | solubility (physchem [9]; pH 1.7, simulated gastric fluid): 177 mg/mL (≈ 303 mM) | solubility (physchem [9]; pH 2.4, aqueous buffer): 329 mg/mL (≈ 563 mM) | solubility (physchem [9]; pH 3.6, aqueous buffer): 173 mg/mL (≈ 296 mM) | solubility (physchem [9]; pH 6.2, aqueous buffer): 8 mg/mL (≈ 13.7 mM) | solubility (physchem [9]; pH 7.2, aqueous buffer): 11 mg/mL (≈ 18.8 mM)
Compound: COc1cc(N2CCC(N3CCN(C)CC3)CC2)ccc1Nc1ncc(Cl)c(Nc2ccccc2P(C)(C)=O)n1 [Form A, brigatinib]
Purity by HPLC after compression (Compression tests): comparable to that of the starting material
